Results published in patent publication US9828345B2, “Phenylpyrazole derivatives as potent ROCK1 and ROCK2 inhibitors” (BRISTOL-MYERS SQUIBB COMPANY, priority 2013, dated 2017).
Like-named read-outs stand apart in the source and are kept apart here.

Columns and labels:
[1] = molecular target: ROCK1 (Homo sapiens, UniProt Q13464); test: ROCK assay (Caliper LABCHIP peptide phosphorylation), ROCK1; assay type: biochemical; details: 5 μM ATP, 1.5 μM peptide substrate
[2] = molecular target: ROCK2 (Homo sapiens, UniProt O75116); test: ROCK assay (Caliper LABCHIP peptide phosphorylation), ROCK2; assay type: biochemical; details: 5 μM ATP, 1.5 μM peptide substrate
ROCK2, sequence (O75116 whole entry, species assumed): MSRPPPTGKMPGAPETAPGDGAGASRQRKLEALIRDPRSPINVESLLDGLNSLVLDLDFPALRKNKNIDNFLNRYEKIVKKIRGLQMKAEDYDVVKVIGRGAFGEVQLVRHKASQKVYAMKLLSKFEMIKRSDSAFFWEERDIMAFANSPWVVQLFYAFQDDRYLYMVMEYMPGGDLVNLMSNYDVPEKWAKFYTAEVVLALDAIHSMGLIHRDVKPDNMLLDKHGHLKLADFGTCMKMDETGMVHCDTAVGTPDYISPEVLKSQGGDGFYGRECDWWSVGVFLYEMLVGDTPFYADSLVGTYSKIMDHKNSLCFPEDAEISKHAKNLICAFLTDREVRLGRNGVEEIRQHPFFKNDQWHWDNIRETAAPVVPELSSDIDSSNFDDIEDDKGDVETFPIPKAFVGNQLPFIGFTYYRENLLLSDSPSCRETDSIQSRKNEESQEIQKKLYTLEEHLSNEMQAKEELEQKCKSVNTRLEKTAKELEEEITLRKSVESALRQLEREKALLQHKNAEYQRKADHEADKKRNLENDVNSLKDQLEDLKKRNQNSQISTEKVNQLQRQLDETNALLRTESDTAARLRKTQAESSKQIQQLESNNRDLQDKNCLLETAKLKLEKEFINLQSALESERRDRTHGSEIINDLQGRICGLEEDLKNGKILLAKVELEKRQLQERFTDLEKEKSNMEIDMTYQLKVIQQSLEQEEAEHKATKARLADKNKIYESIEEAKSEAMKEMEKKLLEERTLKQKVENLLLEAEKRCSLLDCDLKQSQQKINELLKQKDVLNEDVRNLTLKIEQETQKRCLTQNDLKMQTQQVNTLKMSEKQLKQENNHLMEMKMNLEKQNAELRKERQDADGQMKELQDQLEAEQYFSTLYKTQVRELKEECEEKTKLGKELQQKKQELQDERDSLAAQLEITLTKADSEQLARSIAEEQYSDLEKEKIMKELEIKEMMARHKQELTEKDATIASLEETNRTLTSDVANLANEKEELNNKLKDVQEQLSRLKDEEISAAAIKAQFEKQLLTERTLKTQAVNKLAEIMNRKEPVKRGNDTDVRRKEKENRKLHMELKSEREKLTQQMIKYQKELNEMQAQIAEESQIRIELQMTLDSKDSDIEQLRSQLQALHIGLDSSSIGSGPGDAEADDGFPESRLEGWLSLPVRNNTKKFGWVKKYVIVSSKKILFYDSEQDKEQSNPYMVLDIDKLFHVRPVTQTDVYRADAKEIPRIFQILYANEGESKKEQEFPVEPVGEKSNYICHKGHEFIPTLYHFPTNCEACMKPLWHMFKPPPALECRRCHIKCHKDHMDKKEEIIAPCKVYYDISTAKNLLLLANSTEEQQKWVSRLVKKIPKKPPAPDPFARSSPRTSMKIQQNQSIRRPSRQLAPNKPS

[3] = test system: spontaneously hypertensive rat, renal hypertensive rat and deoxycortisone acetate salt hypertensive rat models; details: cited from earlier work
[4] = test system: neointimal formation; details: rats; cited from earlier work
[5] = test system: congestive heart failure in Dahl salt-sensitive rats; details: rat, in vivo; cited from earlier work
[6] = test system: IL-1 beta-induced coronary stenosis; details: long term treatment; cited from earlier work
[7] = test system: rat stroke model; details: in vivo; cited from earlier work

ROCK1, sequence (Q13464 whole entry, species assumed): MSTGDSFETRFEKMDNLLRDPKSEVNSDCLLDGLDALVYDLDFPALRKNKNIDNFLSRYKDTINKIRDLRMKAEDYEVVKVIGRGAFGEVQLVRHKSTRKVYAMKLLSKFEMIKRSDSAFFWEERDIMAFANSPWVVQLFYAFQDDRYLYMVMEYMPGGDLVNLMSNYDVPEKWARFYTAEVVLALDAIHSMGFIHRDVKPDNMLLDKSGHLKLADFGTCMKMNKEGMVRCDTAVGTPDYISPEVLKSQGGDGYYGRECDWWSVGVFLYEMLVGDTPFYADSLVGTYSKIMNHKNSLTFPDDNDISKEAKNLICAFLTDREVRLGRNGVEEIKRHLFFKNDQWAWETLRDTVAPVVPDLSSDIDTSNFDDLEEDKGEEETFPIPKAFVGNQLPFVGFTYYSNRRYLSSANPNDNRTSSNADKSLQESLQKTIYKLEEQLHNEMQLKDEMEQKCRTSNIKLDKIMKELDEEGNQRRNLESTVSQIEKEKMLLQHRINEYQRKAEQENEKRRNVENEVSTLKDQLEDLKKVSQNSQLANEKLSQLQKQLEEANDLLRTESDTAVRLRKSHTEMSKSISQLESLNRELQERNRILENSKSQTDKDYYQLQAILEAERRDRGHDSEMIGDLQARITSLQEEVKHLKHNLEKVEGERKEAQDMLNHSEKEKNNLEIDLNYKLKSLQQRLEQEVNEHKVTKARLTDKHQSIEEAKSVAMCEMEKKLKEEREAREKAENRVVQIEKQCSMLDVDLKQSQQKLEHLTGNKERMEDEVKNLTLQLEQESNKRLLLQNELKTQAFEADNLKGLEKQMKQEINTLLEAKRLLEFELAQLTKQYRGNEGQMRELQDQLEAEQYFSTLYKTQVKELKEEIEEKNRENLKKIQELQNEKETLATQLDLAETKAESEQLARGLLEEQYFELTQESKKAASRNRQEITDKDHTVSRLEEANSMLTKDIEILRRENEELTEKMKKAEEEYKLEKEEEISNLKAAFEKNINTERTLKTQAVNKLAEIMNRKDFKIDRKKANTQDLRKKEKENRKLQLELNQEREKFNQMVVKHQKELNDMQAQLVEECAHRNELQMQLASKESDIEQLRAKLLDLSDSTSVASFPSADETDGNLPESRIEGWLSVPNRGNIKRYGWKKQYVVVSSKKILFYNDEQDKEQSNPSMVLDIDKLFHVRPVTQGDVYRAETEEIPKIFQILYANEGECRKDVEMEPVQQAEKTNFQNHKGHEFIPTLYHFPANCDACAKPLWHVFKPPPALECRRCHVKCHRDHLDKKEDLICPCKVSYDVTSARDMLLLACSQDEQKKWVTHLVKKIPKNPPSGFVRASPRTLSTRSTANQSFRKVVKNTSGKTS

| IC50 [1] | IC50 [2] | SMILES | further results |
| --- | --- | --- | --- |
| 8.78 nM | 3.25 nM | COc1cc(NC(=O)[C@H](N)Cc2ccc3ccccc3c2)ccc1-c1cn[nH]c1 [Example 6, (R)-2-amino-N-(3-methoxy-4-(1H-pyrazol-4-yl)phenyl)-3-(naphthalen-2-yl)propanamide] | – |
| 31.6 nM | 17.9 nM | COc1cc(NC(=O)[C@@H](N)Cc2csc3ccccc23)ccc1-c1cn[nH]c1 [Example 9, (S)-2-amino-3-(benzo[b]thiophen-3-yl)-N-(3-methoxy-4-(1H-pyrazol-4-yl)phenyl) propanamide] | – |
| 50 nM | 14.3 nM | COc1cc(NC(=O)[C@H](N)Cc2cccc(C(F)(F)F)c2)ccc1-c1cn[nH]c1 [Example 11, (R)-2-amino-N-(3-methoxy-4-(1H-pyrazol-4-yl)phenyl)-3-(3-(trifluoromethyl)phenyl)propanamide] | – |
| 19.9 nM | 23.6 nM | COc1cc(NC(=O)[C@H](N)Cc2ccccc2C(F)(F)F)ccc1-c1cn[nH]c1 [Example 12, (R)-2-amino-N-(3-methoxy-4-(1H-pyrazol-4-yl)phenyl)-3-(2-(trifluoromethyl)phenyl)propanamide] | – |
| 68.4 nM | 10.3 nM | COc1cc(NC(=O)[C@H](N)Cc2ccc(-c3ccccc3)cc2)ccc1-c1cn[nH]c1 [Example 13, (R)-3-([1,1′-biphenyl]-4-yl)-2-amino-N-(3-methoxy-4-(1H-pyrazol-4-yl)phenyl)propanamide] | – |
| 12.6 nM | 13.4 nM | COc1cc(NC(=O)[C@H](N)Cc2cc(F)cc(F)c2)ccc1-c1cn[nH]c1 [Example 14, (R)-2-amino-3-(3,5-difluorophenyl)-N-(3-methoxy-4-(1H-pyrazol-4-yl)phenyl) propanamide] | – |
| 13.9 nM | 37.5 nM | COc1cc(NC(=O)[C@H](N)Cc2ccccc2Cl)ccc1-c1cn[nH]c1 [Example 19, (R)-2-amino-3-(2-chlorophenyl)-N-(3-methoxy-4-(1H-pyrazol-4-yl)phenyl) propanamide] | – |
| 111 nM | 8.51 nM | O=C(Cc1ccccc1Cl)Nc1ccc(-c2cn[nH]c2)cc1OCCN1CCCC1 [Example 23, N-(4-(1H-Pyrazol-4-yl)-2-(2-(pyrrolidin-1-yl)ethoxy)phenyl)-2-(2-chlorophenyl)acetamide] | – |
| 874 nM | 342 nM | CN(C)CCOc1cc(-c2cn[nH]c2)c(F)cc1NC(=O)[C@H](N)CCc1ccccc1 [Example 27, (R)-2-Amino-N-(2-(2-(dimethylamino)ethoxy)-5-fluoro-4-(1H-pyrazol-4-yl)phenyl)-4-phenylbutanamide] | – |
| 42.5 nM | 17.8 nM | N[C@H](CCc1ccccc1)C(=O)Nc1ccc(-c2cn[nH]c2)cc1 [Example 28, (R)—N-(4-(1H-Pyrazol-4-yl)phenyl)-2-amino-4-phenylbutanamide] | – |
| 19.6 nM | 4.06 nM | O=C(Cc1ccccc1Cl)Nc1ccc(-c2cn[nH]c2)cc1 [Example 29, N-(4-(1H-Pyrazol-4-yl)phenyl)-2-(2-chlorophenyl)acetamide] | – |
| 232 nM | 167 nM | COc1cc(NC(=O)[C@H](N)CCc2ccccc2)ccc1-c1c[nH]nc1C [Example 30, (R)-2-Amino-N-(3-methoxy-4-(3-methyl-1H-pyrazol-4-yl)phenyl)-4-phenylbutanamide] | – |
| – | – | C[C@@H](N)[C@H]1CC[C@H](C(=O)Nc2ccncc2)CC1 [Example Y-27632, Y-27632] | blood pressure ([3]; control rats): only a minor effect on blood pressure; blood pressure ([3]; three rat models of hypertension): significantly decrease blood pressure; neointimal formation [4]: inhibited neointimal formation; ventricular hypertrophy, fibrosis and function [5]: improve ventricular hypertrophy, fibrosis and function |
| – | – | O=S(=O)(c1cccc2cnccc12)N1CCCNCC1 [fasudil] | coronary constrictive remodeling [6]: promote a regression of coronary constrictive remodeling; coronary stenosis [6]: progressively reduce coronary stenosis; infarct size and neurologic deficit [7]: reduce both the infarct size and neurologic deficit |
